Patent publication US5429766A, “Detergent composition containing alkaline pullylanase enzyme” (Kao Corporation, priority 1990, dated 1995)

Assays:
Assay type in all cases: biochemical
[1] = system: alkaline pullulanase A from Bacillus sp. KSM-AP 1876 (FERM BP-3049); assay: Effects of chelating agents on pullulanase activity of alkaline pullulanase A; conditions: substrate pullulan
Method: (§1) 0.1 ml of enzyme solution was added to 0.9 ml of a substrate solution consisting of a buffer solution and pullulan (final concentration in the reaction system was 0.25%), and the mixture was reacted at 40° C. for 30 minutes. After the reaction, reducing sugar was quantitatively determined by a method of the 3,5-dinitrosalicylic acid (DNS).
(§2) Specifically, 1.0 ml of DNS reagent was added to 1.0 ml of reaction mixture, and the mixture was heated at 100° C. for 5 minutes to develop color. After cooling, the mixture was diluted by adding 4.0 ml of deionized water. This solution was subjected to colorimetric quantitative analysis at a wave length of 535 nm. One unit (1U) of enzyme activity was defined as the amount of enzyme which released 1 μmol of reducing sugar (as glucose) per minute.

[2] = system: alkaline pullulanase B (having α-amylase activity) from Bacillus sp. KSM-AP 1378 (FERM BP-3048), pullulanase activity; assay: Effects of chelating agents on pullulanase activity of alkaline pullulanase B; conditions: for Effect of chelating agent on pullulanase activity: chelating agent 10 mM; for Residual activity (%), Pullulanase activity: compound 10 mM, no addition = 100
Method: as §1, §2
Same procedures were followed as mentioned in the section of alkaline pullulanase A.
The α-amylase activity which had been adversely affected by chelating agents can be restored by the addition of Ca^2+ ions as shown in Table 3.

[3] = system: alkaline pullulanase B (having α-amylase activity) from Bacillus sp. KSM-AP 1378 (FERM BP-3048), α-amylase activity; assay: Effects of chelating agents on α-amylase activity of alkaline pullulanase B
Method: as §2, with “0.1 ml of enzyme solution was added to 0.9 ml of a substrate solution consisting of a buffer solution and soluble starch (final concentration in the reaction system was 0.25%), and the mixture was reacted at 50° C. for 15 minutes. After the reaction, reducing sugar was quantitatively determined by means of a DNS method. Specifically,” for “Specifically,”, “at” for “at a”

Structure (SMILES): O=C(O)CN(CCN(CC(=O)O)CC(=O)O)CC(=O)O [EDTA]
- Effect of chelating agent on pullulanase activity ([1]; chelating agent 10 mM): almost no adverse effects
- Effect of chelating agent on pullulanase activity [2]: almost no adverse effect
- Residual activity (%), Pullulanase activity [2]: 77%

Structure (SMILES): O=C(O)CN(CCOCCOCCN(CC(=O)O)CC(=O)O)CC(=O)O [EGTA]
- Effect of chelating agent on pullulanase activity ([1]; chelating agent 10 mM): almost no adverse effects
- Effect of chelating agent on α-amylase activity ([3]; chelating agent 10 mM, restored by addition of Ca2+ ions): adversely affected significantly
- Residual activity (%), α-Amylase activity, when Ca2+ ions were added again ([3]; compound 10 mM, then Ca2+ ions added again (values in parentheses)): 91%
- Residual activity (%), α-Amylase activity ([3]; compound 10 mM, no addition = 100): 18%
- Effect of chelating agent on pullulanase activity [2]: almost no adverse effect
- Residual activity (%), Pullulanase activity [2]: 65%

Structure (SMILES): O=C(O)CC(O)(CC(=O)O)C(=O)O [citric acid]
- Effect of chelating agent on pullulanase activity ([1]; chelating agent 0.05% by weight): almost no adverse effects
